# Test results: patent publication US10077241B2 (Janssen Pharmaceutica NV, priority 2014, dated 2018)
# Counter-ions that a name gives are not always drawn.
# Columns and labels:
# [1] = biological target: T1, TGR5 (STC1 cell line) (Mus musculus, UniProt Q80SS6); assay: STC1 cAMP Agonist EC50 Determination
# T1 sequence (Q80SS6 1-329): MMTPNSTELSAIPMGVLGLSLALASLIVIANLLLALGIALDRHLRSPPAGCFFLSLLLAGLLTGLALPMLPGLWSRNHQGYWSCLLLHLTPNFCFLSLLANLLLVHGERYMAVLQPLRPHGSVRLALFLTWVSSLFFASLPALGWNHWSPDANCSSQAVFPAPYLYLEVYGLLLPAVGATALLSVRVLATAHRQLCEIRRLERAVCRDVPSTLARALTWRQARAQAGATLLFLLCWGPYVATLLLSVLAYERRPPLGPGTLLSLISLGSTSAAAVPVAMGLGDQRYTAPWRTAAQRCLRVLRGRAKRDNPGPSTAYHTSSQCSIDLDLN
# [2] = biological target: T2, TGR5 (NCI-H716 cell line) (Homo sapiens, UniProt Q8TDU6); assay: NCI-H716 cAMP Agonist EC50 Determination
# T2 sequence (Q8TDU6 1-330): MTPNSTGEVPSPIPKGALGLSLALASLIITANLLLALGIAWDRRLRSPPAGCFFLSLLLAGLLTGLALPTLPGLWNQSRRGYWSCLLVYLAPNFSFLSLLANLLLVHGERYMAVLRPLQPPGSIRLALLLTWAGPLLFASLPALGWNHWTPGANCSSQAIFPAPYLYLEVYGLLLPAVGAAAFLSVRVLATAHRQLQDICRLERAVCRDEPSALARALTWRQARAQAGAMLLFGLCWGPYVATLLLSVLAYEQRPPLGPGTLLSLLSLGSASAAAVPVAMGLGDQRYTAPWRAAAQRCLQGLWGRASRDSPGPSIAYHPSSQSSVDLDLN
smiles,measurement,setting,value
"COc1cc(C2CCCc3nc(SCc4c(F)cc(OCCOCCN(C)C)cc4F)n(-c4ccc(F)cc4)c32)ccc1Cl (stereo not drawn) [Example 34, (2-[2-[4-([[7-(4-chloro-3-methoxyphenyl)-1-(4-fluorophenyl)-4,5,6,7-tetrahydro-1H-1,3-benzodiazol-2-yl]sulfanyl]methyl)-3,5-difluorophenoxy]ethoxy]ethyl)dimethylamine hydrochloride]",EC50,[1],3.9 µM
same,EC50,[2],> 50 µM
"COc1cc(C2CCCc3nc(SCc4c(F)cc(OCCN(C)C)cc4F)n(-c4ccc(F)cc4)c32)ccc1Cl (stereo not drawn) [Example 24, 2-(4-((7-(4-chloro-3-methoxyphenyl)-1-(4-fluorophenyl)-4,5,6,7-tetrahydro-1H-benzo[d]imidazol-2-ylthio)methyl)-3,5-difluorophenoxy)-N,N-dimethylethanamine Trifluoromethylacetic acid salt]",EC50,[1],3.92 µM
same,EC50,[2],> 50 µM
"C/N=C(\N)NCCCc1cc(F)c(CSc2nc3c(n2-c2ccc(F)cc2)C(c2ccc(Cl)c(OC)c2)CCC3)c(F)c1 (stereo not drawn) [Example 39a, (E)-1-[3-[4-([[7-(4-chloro-3-methoxyphenyl)-1-(4-fluorophenyl)-4,5,6,7-tetrahydro-1H-1,3-benzodiazol-2-yl]sulfanyl]methyl)-3,5-difluorophenyl]propyl]-2-methylguanidine hydrochloride]",EC50,[1],0.36 µM
same,EC50,[2],> 50 µM
"COc1cc(C2CCCc3nc(SCc4c(F)cc(/C=C5\SC(=O)NC5=O)cc4F)n(-c4ccc(F)cc4)c32)ccc1Cl (stereo not drawn) [Example 37, (5Z)-5-[[4-([[7-(4-chloro-3-methoxyphenyl)-1-(4-fluorophenyl)-4,5,6,7-tetrahydro-1H-1,3-benzodiazol-2-yl]sulfanyl]methyl)-3,5-difluorophenyl]methylidene]-1,3-thiazolidine-2,4-dione]",EC50,[1],14.9 µM
same,EC50,[2],> 50 µM
"COc1cc(C2CCCc3nc(SCc4c(F)cc(CC/C=N/NC(=N)N)cc4F)n(-c4ccc(F)cc4)c32)ccc1Cl (stereo not drawn) [Example 47, (E)-2-(3-(4-((7-(4-chloro-3-methoxyphenyl)-1-(4-fluorophenyl)-4,5,6,7-tetrahydro-1H-benzo[d]imidazol-2-ylthio)methyl)-3,5-difluorophenyl)propylidene) hydrazinecarboximidamide hydrochloride]",EC50,[1],0.37 µM
same,EC50,[2],47.3 µM
"COc1ccc(C2(C)CCCc3nc(SCc4c(F)cc(CCN5CCOCC5)cc4F)n(-c4ccc(F)cc4)c32)cc1OC (stereo not drawn) [Example 112, 4-(4-(((7-(3,4-dimethoxyphenyl)-1-(4-fluorophenyl)-7-methyl-4,5,6,7-tetrahydro-1H-benzo[d]imidazol-2-yl)thio)methyl)-3,5-difluorophenethyl)morpholine]",EC50,[1],0.13 µM
same,EC50,[2],0.3 µM
"COc1cc(C2CCCc3nc(SCc4c(F)cc(OCc5nnn[nH]5)cc4F)n(-c4ccc(F)cc4)c32)ccc1Cl (stereo not drawn) [Example 30, 7-(4-chloro-3-methoxyphenyl)-2-([[2,6-difluoro-4-(1H-1,2,3,4-tetrazol-5-ylmethoxy)phenyl]methyl]sulfanyl)-1-(4-fluorophenyl)-4,5,6,7-tetrahydro-1H-1,3-benzodiazole]",EC50,[1],0.96 µM
same,EC50,[2],> 50 µM
"COc1cc(C2CCCc3nc(SCc4c(F)cc(S(N)(=O)=O)cc4F)n(-c4ccc(F)cc4)c32)ccc1Cl (stereo not drawn) [Example 21a, 4-((7-(4-chloro-3-methoxyphenyl)-1-(4-fluorophenyl)-4,5,6,7-tetrahydro-1H-benzo[d]imidazol-2-ylthio)methyl)-3,5-difluorobenzenesulfonamide]",EC50,[1],0.69 µM
same,EC50,[2],48.4 µM
"C/N=C(\N)N/N=C/CCc1cc(F)c(CSc2nc3c(n2-c2ccc(F)cc2)C(c2ccc(Cl)c(OC)c2)CCC3)c(F)c1 (stereo not drawn) [Example 48, (1E,2E)-2-(3-(4-((7-(4-chloro-3-methoxyphenyl)-1-(4-fluorophenyl)-4,5,6,7-tetrahydro-1H-benzo[d]imidazol-2-ylthio)methyl)-3,5-difluorophenyl)propylidene)-N′-methylhydrazinecarboximidamide hydrochloride]",EC50,[1],0.35 µM
same,EC50,[2],> 50 µM
"COc1cc(C2CCCc3nc(SCc4c(F)ccc(OCCOCCOCCN(C)C)c4F)n(-c4ccc(F)cc4)c32)ccc1Cl (stereo not drawn) [Example 32, 7-(4-chloro-3-methoxyphenyl)-2-([[3-(2-[2-[2-(dimethylamino)ethoxy]ethoxy]ethoxy)-2,6-difluorophenyl]methyl]sulfanyl)-1-(4-fluorophenyl)-4,5,6,7-tetrahydro-1H-1,3-benzodiazole hydrochloride]",EC50,[1],1.38 µM
same,EC50,[2],16.9 µM
"COc1cc(C2CCCc3nc(SCc4c(F)cc(S(=O)(=O)NS(C)(=O)=O)cc4F)n(-c4ccc(F)cc4)c32)ccc1Cl (stereo not drawn) [Example 21b, 4-((7-(4-chloro-3-methoxyphenyl)-1-(4-fluorophenyl)-4,5,6,7-tetrahydro-1H-benzo[d]imidazol-2-ylthio)methyl)-3,5-difluoro-N-(methylsulfonyl)benzenesulfonamide]",EC50,[1],8.12 µM
same,EC50,[2],> 50 µM
"COc1cc(C2CCCc3nc(SCc4c(Br)cncc4Br)n(-c4ccc(F)cc4)c32)ccc1Cl (stereo not drawn) [Example 60, 2-((3,5-dibromopyridin-4-yl)methylthio)-7-(4-chloro-3-methoxyphenyl)-1-(4-fluorophenyl)-4,5,6,7-tetrahydro-1H-benzo[d]imidazole]",EC50,[1],15.5 µM
same,EC50,[2],> 50 µM
"COc1cc(C2CCCc3nc(SCc4c(F)cc(C(=O)NCC[N+](C)(C)C)cc4F)n(-c4ccc(F)cc4)c32)ccc1Cl (stereo not drawn) [Example 13, 2-(4-((7-(4-chloro-3-methoxyphenyl)-1-(4-fluorophenyl)-4,5,6,7-tetrahydro-1H-benzo[d]imidazol-2-ylthio)methyl)-3,5-difluorobenzamido)-N,N,N-trimethylethanaminium 2,2,2-trifluoroacetate]",EC50,[1],8.04 µM
same,EC50,[2],> 50 µM
"COc1ccc(C2CCCc3nc(SCc4c(F)cc(OCCN5CCCC5)cc4F)n(-c4ccc(F)cc4)c32)cc1OC (stereo not drawn) [Example 69, 2-((2,6-difluoro-4-(2-(pyrrolidin-1-yl)ethoxy)benzyl)thio)-7-(3,4-dimethoxyphenyl)-1-(4-fluorophenyl)-4,5,6,7-tetrahydro-1H-benzo[d]imidazole]",EC50,[1],0.85 µM
same,EC50,[2],7.97 µM
"CCO/C=C/c1cc(F)c(CSc2nc3c(n2-c2ccc(F)cc2)C(C)(c2ccc(OC)c(OC)c2)CCC3)c(F)c1 (stereo not drawn) [Example 110, (E)-7-(3,4-dimethoxyphenyl)-2-((4-(2-ethoxyvinyl)-2,6-difluorobenzyl)thio)-1-(4-fluorophenyl)-7-methyl-4,5,6,7-tetrahydro-1H-benzo[d]imidazole]",EC50,[1],0.45 µM
same,EC50,[2],1.18 µM
"COc1cc(C2CCCc3nc(SCc4c(F)cncc4Br)n(-c4ccc(F)cc4)c32)ccc1Cl (stereo not drawn) [Example 56, 2-((3-bromo-5-fluoropyridin-4-yl)methylthio)-7-(4-chloro-3-methoxyphenyl)-1-(4-fluorophenyl)-4,5,6,7-tetrahydro-1H-benzo[d]imidazole trifluoroacetic acid]",EC50,[1],0.13 µM
same,EC50,[2],> 50 µM
"COc1cc(C2CCCc3nc(SCc4c(F)cc(C(=O)O)cc4F)n(-c4ccc(F)cc4)c32)ccc1Cl (stereo not drawn) [Example 12, 4-((7-(4-chloro-3-methoxyphenyl)-1-(4-fluorophenyl)-4,5,6,7-tetrahydro-1H-benzo[d]imidazol-2-ylthio)methyl)-3,5-difluorobenzoic acid trifluoroacetic acid]",EC50,[1],19.7 µM
same,EC50,[2],> 50 µM
"COc1cc(C2CCCc3nc(SCc4c(F)cc(CCCO)cc4F)n(-c4ccc(F)cc4)c32)ccc1Cl (stereo not drawn) [Example 41, 3-(4-((7-(4-chloro-3-methoxyphenyl)-1-(4-fluorophenyl)-4,5,6,7-tetrahydro-1H-benzo[d]imidazol-2-ylthio)methyl)-3,5-difluorophenyl)propan-1-ol trifluoroacetic acid]",EC50,[1],0.89 µM
same,EC50,[2],> 50 µM
"COc1cc(C2(C)CCCc3nc(SCc4c(F)cc(-c5nnn[nH]5)cc4F)n(-c4ccc(F)cc4)c32)ccc1F (stereo not drawn) [Example 121, 2-((2,6-difluoro-4-(1H-tetrazol-5-yl)benzyl)thio)-7-(4-fluoro-3-methoxyphenyl)-1-(4-fluorophenyl)-7-methyl-4,5,6,7-tetrahydro-1H-benzo[d]imidazole]",EC50,[1],3.11 µM
same,EC50,[2],> 50 µM
"COc1cc(C2CCCc3nc(SCc4c(F)cc(CCC#N)cc4F)n(-c4ccc(F)cc4)c32)ccc1Cl (stereo not drawn) [Example 46, 3-(4-((7-(4-chloro-3-methoxyphenyl)-1-(4-fluorophenyl)-4,5,6,7-tetrahydro-1H-benzo[d]imidazol-2-ylthio)methyl)-3,5-difluorophenyl)propanenitrile trifluoroacetic acid]",EC50,[1],0.14 µM
same,EC50,[2],> 50 µM
"COc1cc(C2(C=O)CCCc3nc(SCc4c(F)cccc4Cl)n(-c4ccc(F)cc4)c32)ccc1Cl (stereo not drawn) [Example 130, 4-(4-chloro-3-methoxyphenyl)-2-(2-chloro-6-fluorobenzylthio)-3-(4-fluorophenyl)-4,5,6,7-tetrahydro-3H-benzo[d]imidazole-4-carbaldehyde trifluoroacetic acid]",EC50,[1],14.1 µM
same,EC50,[2],> 50 µM
